What all share (type): functional
Assay [1] relates to HT-29. The assay is described as follows: Antiproliferative activity against human HT-29 cells assessed as […] cell proliferation at 10 uM incubated for 48 hrs in presence of 15 uM of CDDP by WST-1 assay relative to control. In general terms: Tetrazolium assays rely on reduction of a dye to a coloured formazan, in cell work by metabolically active cells.
Assay [2] deals with SAOS-2. Nature of the assay: Antiproliferative activity against human SAOS-2 cells assessed as […] cell proliferation at 10 uM incubated for 48 hrs by WST-1 assay relative to control.
Assay [3] relates to HT-29. Nature of the assay: Antiproliferative activity against human HT-29 cells assessed as […] cell proliferation at 10 uM incubated for 48 hrs by WST-1 assay relative to control.
Assay [4] has as its system Jurkat. The assay is described as follows: Antiproliferative activity against human Jurkat cells assessed as […] cell proliferation at 10 uM incubated for 48 hrs by WST-1 assay relative to control.
The test system of assay [5] is A549. Nature of the assay: Antiproliferative activity against human A549 cells assessed as […] cell proliferation at 10 uM incubated for 48 hrs by WST-1 assay relative to control.
Assay [6] relates to A549. The assay is described as follows: Antiproliferative activity against human A549 cells assessed as […] cell proliferation at 10 uM incubated for 48 hrs in presence of 15 uM of CDDP by WST-1 assay relative to control.
The test system of assay [7] is MOLT-4. Nature of the assay: Antiproliferative activity against human MOLT-4 cells assessed as […] cell proliferation at 10 uM incubated for 48 hrs in presence of 2 uM of CDDP by WST-1 assay relative to control.
Assay [8] relates to MCF7. Nature of the assay: Antiproliferative activity against human MCF7 cells assessed as […] cell proliferation at 10 uM incubated for 48 hrs in presence of 10 uM of CDDP by WST-1 assay relative to control.
For assay [9], the system named is HeLa. Nature of the assay: Antiproliferative activity against human HeLa cells assessed as […] cell proliferation at 10 uM incubated for 48 hrs in presence of 15 uM of CDDP by WST-1 assay relative to control.
Assay [10] deals with MCF7. Nature of the assay: Antiproliferative activity against human MCF7 cells assessed as […] cell proliferation at 10 uM incubated for 48 hrs by WST-1 assay relative to control.
Assay [11] relates to A2780. The assay is described as follows: Antiproliferative activity against human A2780 cells assessed as […] cell proliferation at 10 uM incubated for 48 hrs in presence of 2 uM of CDDP by WST-1 assay relative to control.
Assay [12] has as its system MOLT-4. Nature of the assay: Antiproliferative activity against human MOLT-4 cells assessed as […] cell proliferation at 10 uM incubated for 48 hrs by WST-1 assay relative to control.
The subject of assay [13] is HeLa. The assay is described as follows: Antiproliferative activity against human HeLa cells assessed as […] cell proliferation at 10 uM incubated for 48 hrs by WST-1 assay relative to control.
Assay [14] deals with PANC-1. The assay is described as follows: Antiproliferative activity against human PANC-1 cells assessed as […] cell proliferation at 10 uM incubated for 48 hrs by WST-1 assay relative to control.
Assay [15] concerns PANC-1. The assay is described as follows: Antiproliferative activity against human PANC-1 cells assessed as […] cell proliferation at 10 uM incubated for 48 hrs in presence of 15 uM of CDDP by WST-1 assay relative to control.
Assay [16] has as its system SAOS-2. The assay is described as follows: Antiproliferative activity against human SAOS-2 cells assessed as […] cell proliferation at 10 uM incubated for 48 hrs in presence of 15 uM of CDDP by WST-1 assay relative to control.
In assay [17] the test system is A2780. Nature of the assay: Antiproliferative activity against human A2780 cells assessed as […] cell proliferation at 10 uM incubated for 48 hrs by WST-1 assay relative to control.
Assay [18] deals with Jurkat. The assay is described as follows: Antiproliferative activity against human Jurkat cells assessed as […] cell proliferation at 10 uM incubated for 48 hrs in presence of 2 uM of CDDP by WST-1 assay relative to control.

As to `CS(=O)(=O)c1ccc(-c2cnc3[nH]c(C(=O)NCc4ccccc4)cc3c2)cc1`, the Activity is recorded as 72% in the assay on HT-29 [1]; 100% in the assay with SAOS-2 [2]; 100% in the assay on Jurkat [4]; 100% in the assay with A549 [5]; 72% in the assay on A549 [6]; 72% in the assay with MOLT-4 [7]. Besides, the Activity in the assay with MCF7 [8] is given as 72%; in the assay on HeLa [9], 72%; with MCF7 [10], 100%; in the assay with A2780 [11], 72%; with MOLT-4 [12] it was 100%; with HeLa [13] it was 100%. For the same compound, the Activity is reported as 100% in the assay on PANC-1 [14]; 72% in the assay on PANC-1 [15]; 72% in the assay with SAOS-2 [16]; 100% with A2780 [17]; 72% with Jurkat [18]. Moreover, the “Cell viability relative to control” value in the assay on HT-29 [3] is given as 100%.

`CC(C)S(=O)(=O)c1ccc(-c2cnc3[nH]nc(C(=O)N4CCc5ccccc5C4)c3c2)cc1`: the Activity was determined as 61% with HT-29 [1]; 96% with SAOS-2 [2]; 96% in the assay on Jurkat [4]; 96% with A549 [5]; 61% in the assay on A549 [6]; 61% in the assay with MOLT-4 [7]. The Activity in the assay with MCF7 [8] is 61%; in the assay with HeLa [9], 61%; with MCF7 [10], 96%; in the assay with A2780 [11] it was 61%; with MOLT-4 [12], 96%; in the assay with HeLa [13], 96%. Besides, the Activity stood at 96% in the assay on PANC-1 [14]; 61% in the assay with PANC-1 [15]; 61% in the assay with SAOS-2 [16]; 96% in the assay with A2780 [17]; 61% in the assay on Jurkat [18]. In the assay on HT-29 [3], the “Cell viability relative to control” value stood at 96%.

Regarding `CCN1CCN(C(=O)c2cc(-c3ccc(S(C)(=O)=O)cc3)[nH]n2)CC1`, the Activity in the assay on HT-29 [1] amounted to 65%; with SAOS-2 [2] it was 102%; in the assay on Jurkat [4] it was 102%; in the assay with A549 [5], 102%; with A549 [6], 65%; in the assay on MOLT-4 [7], 65%. Moreover, the Activity in the assay on MCF7 [8] is 65%; with HeLa [9], 65%; with MCF7 [10], 102%; in the assay on A2780 [11], 65%; with MOLT-4 [12], 102%; with HeLa [13], 102%. For the same compound, the Activity came to 102% in the assay on PANC-1 [14]; 65% in the assay with PANC-1 [15]; 65% in the assay on SAOS-2 [16]; 102% in the assay on A2780 [17]; 65% with Jurkat [18]. Besides, in the assay with HT-29 [3], the “Cell viability relative to control” value came to 102%.

In the case of `CCN1CCN(C2CCN(C(=O)c3cc4cc(-c5ccc(S(C)(=O)=O)cc5)cnc4[nH]3)CC2)CC1`, the Activity with HT-29 [1] came out at 67%; with SAOS-2 [2], 96%; in the assay with Jurkat [4], 96%; with A549 [5], 96%; with A549 [6], 67%; in the assay with MOLT-4 [7] it was 67%. Moreover, the Activity in the assay with MCF7 [8] came out at 67%; in the assay on HeLa [9], 67%; in the assay on MCF7 [10], 96%; with A2780 [11], 67%; with MOLT-4 [12], 96%; with HeLa [13], 96%. Also, the Activity with PANC-1 [14] stood at 96%; in the assay on PANC-1 [15], 67%; in the assay on SAOS-2 [16], 67%; in the assay on A2780 [17], 96%; in the assay with Jurkat [18] it was 67%. Also, the “Cell viability relative to control” value in the assay on HT-29 [3] was 96%.

For the compound `CS(=O)(=O)c1ccc(-c2cnc3[nH]nc(C(=O)N4CCC(c5ccccc5)CC4)c3c2)cc1`, the Activity is recorded as 71% with HT-29 [1]; 92% in the assay on SAOS-2 [2]; 92% with Jurkat [4]; 92% in the assay on A549 [5]; 71% in the assay on A549 [6]; 71% in the assay with MOLT-4 [7]. The Activity amounted to 71% with MCF7 [8]; 71% in the assay on HeLa [9]; 92% with MCF7 [10]; 71% in the assay with A2780 [11]; 92% in the assay on MOLT-4 [12]; 92% in the assay with HeLa [13]. Also, the Activity is listed as 92% with PANC-1 [14]; 71% with PANC-1 [15]; 71% in the assay with SAOS-2 [16]; 92% in the assay with A2780 [17]; 71% with Jurkat [18]. For the same compound, the “Cell viability relative to control” value in the assay on HT-29 [3] is listed as 92%.

As for `CS(=O)(=O)c1ccc(-c2cc(C(=O)NCc3ccccc3)n[nH]2)cc1`, the Activity was 63% with HT-29 [1]; 95% in the assay with SAOS-2 [2]; 95% in the assay on Jurkat [4]; 95% in the assay with A549 [5]; 63% in the assay on A549 [6]; 63% in the assay on MOLT-4 [7]. The Activity in the assay on MCF7 [8] is given as 63%; in the assay on HeLa [9], 63%; with MCF7 [10] it was 95%; in the assay on A2780 [11] it was 63%; in the assay on MOLT-4 [12], 95%; in the assay on HeLa [13] it was 95%. For the same compound, the Activity is reported as 95% in the assay on PANC-1 [14]; 63% in the assay with PANC-1 [15]; 63% with SAOS-2 [16]; 95% with A2780 [17]; 63% in the assay on Jurkat [18]. In addition, the “Cell viability relative to control” value with HT-29 [3] is given as 95%.

Consider `CC(C)S(=O)(=O)c1ccc(-c2cnc3[nH]c(C(=O)N4CCC(c5ccccc5)CC4)cc3c2)cc1`, for which the Activity turned out to be 64% in the assay with HT-29 [1]; 92% in the assay on SAOS-2 [2]; 92% in the assay with Jurkat [4]; 92% in the assay on A549 [5]; 64% in the assay on A549 [6]; 64% with MOLT-4 [7]. Further, the Activity with MCF7 [8] worked out at 64%; in the assay with HeLa [9], 64%; in the assay with MCF7 [10], 92%; in the assay on A2780 [11] it was 64%; with MOLT-4 [12], 92%; with HeLa [13], 92%. In addition, the Activity in the assay with PANC-1 [14] was 92%; in the assay on PANC-1 [15] it was 64%; with SAOS-2 [16] it was 64%; in the assay on A2780 [17], 92%; with Jurkat [18], 64%. The “Cell viability relative to control” value with HT-29 [3] is 92%.

On to `CCN(CC)c1ccc(CNC(=O)c2n[nH]c3ncc(-c4ccc(S(=O)(=O)C(C)C)cc4)cc23)cc1`, for which the Activity amounted to 57% in the assay with HT-29 [1]; 83% in the assay with SAOS-2 [2]; 83% in the assay on Jurkat [4]; 83% in the assay with A549 [5]; 57% in the assay with A549 [6]; 57% in the assay with MOLT-4 [7]. Further, the Activity with MCF7 [8] is 57%; in the assay on HeLa [9] it was 57%; in the assay on MCF7 [10], 83%; in the assay on A2780 [11], 57%; in the assay with MOLT-4 [12], 83%; with HeLa [13], 83%. The Activity with PANC-1 [14] was determined as 83%; with PANC-1 [15], 57%; with SAOS-2 [16], 57%; in the assay with A2780 [17] it was 83%; in the assay on Jurkat [18] it was 57%. In the assay on HT-29 [3], the “Cell viability relative to control” value worked out at 83%.

These data come from ChEMBL document CHEMBL5113478, “7-Azaindole, 2,7-diazaindole, and 1H-pyrazole as core structures for novel anticancer agents with potential chemosensitizing properties” (Eur J Med Chem, 2022).
